Assay results from patent publication US20210177893A1, “Composition and method for treating and healing Medication-Related Osteonecrosis of the Jaw (MRONJ)” (priority 2019, published 2021).

Tests used:
MRONJ [1] = details: out of 24 patients treated with 0.12% chlorhexidine; cited from earlier work
MRONJ lesions = assay: Clinical observation of MRONJ patients (Example 1); format: in vivo, human; details: one patient on intravenous zoledronate, multiple myeloma; lesion smoothed, antibiotic regimen; observed a little over a year
[2] = test system: oral mucosal cells (human gingival fibroblasts and keratinocytes); details: direct application, in vitro; cited from earlier work
MRONJ [3] = details: oral alendronate users, 208 patients; cited from earlier work
[4] = test system: capillary neoangiogenesis; details: cited from earlier work
[5] = in the glycerin gels; cited from earlier work

## [H]/N=C(\N/C(=N/[H])NCCCCCCNC(=N)NC(=N)Nc1ccc(Cl)cc1)Nc1ccc(Cl)cc1 [chlorhexidine]
MRONJ [1]
  patients who experienced MRONJ progression: 13 patients
  patients who experienced MRONJ resolution: 3 patients
  patients who experienced no change in ONJ status: 8 patients

## Augmentin
MRONJ lesions
  outcome of bone lesion: continued to increase in size and did not heal

## O=P(O)(O)C(O)(Cn1ccnc1)P(=O)(O)O [zoledronic acid]
[2]
  effect on the life of oral mucosal cells: deleterious effect on the life of these cells

## NCCCC(O)(P(=O)(O)O)P(=O)(O)O [alendronate]
MRONJ [3]
  MRONJ prevalence rate: 4%

## NCCC(O)(P(=O)(O)O)P(=O)(O)O [pamidronate]
[4]
  effect on new formation of capillaries from blood vessels (capillary neoangiogenesis): inhibit the new formation of capillaries from blood vessels

## [F][Sn][F] [stannous fluoride]
[5]
  stability: relatively stable
